According to publication PMC11856108, “Capsaicin (But Not Other Vanillins) Enhances Estrogen Binding to Its Receptor: Implications for Power Sports and Cancers” (Life, 2025):
pKd: −log10 of the molar value. “Also recorded” adds a separate entry of the source. Read-outs that look alike come from different tables or passages of the source.

Legend:
Human (NSCLC cells) = tested on: Human (NSCLC cells); design: method as in PMID 24926985; details: cited from earlier work
Human [1] = tested on: Human; design: method as in PMID 25621172; details: cited from earlier work
[2] = Binding to steroid hormone by UV spectroscopy
Method: UV spectroscopy in a crystal plate was used to investigate whether CAP has specificity for estrogen alone or whether it can bind to other naturally occurring hormones. To start, CAP was dissolved in a 1:1 solution of water to ethanol at 1 mg/mL ( 3.27×10^−3 M ) and then diluted by thirds eight times. Next, the hormones were dissolved in a 1:1 solution of water to ethanol at a 1/100 dilution. An amount of 50 μL of each CAP dilution was added to 3 wells of a crystal plate, with one well serving as the control, with another 50 μL of 1:1 water to ethanol added, and the other two serving as experimental duplicates, with 50 μL of the prepared hormone solution added. Then, two additional wells were prepared to serve as controls: one containing 100 μL of 1:1 water to ethanol and the other containing 50 μL of prepared hormone solution and 50 μL of 1:1 water to ethanol. Finally, the plate was incubated for 1 h and read in a Spectramax UV-VIS scanning spectrophotometer, spanning wavelengths from 190 to 400 nm. Data analysis involved the subtraction of observed absorbance values from expected absorbance values generated from the control wells ([CAP + 1:1 solution] + [hormone + 1:1 solution] − [1:1 solution]) and plotting them as a function of CAP concentration. Because the solvent (1:1 solution of water–ethanol) was used as a control and subtracted from all wells, the resulting data reflected only the absorbances of the solute compounds. Since each compound has a different lambda maximal absorbance, analysis of the resulting data required finding one common wavelength at which the additions and subtractions of the spectra could be carried out and at which the absorbance of each compound was maximized.
Experiments were also performed to test whether the enhancement or antagonism observed in estradiol binding to the ESR1 might be due to vanilloid compounds binding directly to estradiol or to related steroidal hormones, perhaps protecting them from oxidation or forming a complex that prevented the estradiol binding to its receptor. No vanilloid compound bound to a measurable degree to estradiol or any other steroidal hormone tested.

Human HepG2 cells = tested on: Human HepG2 cells; design: method as in PMID 30987128; details: cited from earlier work
ESR1 = molecular target: T1, ESR1 (Homo sapiens, UniProt P03372); experiment: Competitive-binding ELISA of EST-HRP binding to the estrogen receptor; details: for shift of the estradiol (EST-HRP) binding curve: maximal shift
T1 construct: purchased Invitrogen-Thermofisher
T1 sequence (P03372 1-595): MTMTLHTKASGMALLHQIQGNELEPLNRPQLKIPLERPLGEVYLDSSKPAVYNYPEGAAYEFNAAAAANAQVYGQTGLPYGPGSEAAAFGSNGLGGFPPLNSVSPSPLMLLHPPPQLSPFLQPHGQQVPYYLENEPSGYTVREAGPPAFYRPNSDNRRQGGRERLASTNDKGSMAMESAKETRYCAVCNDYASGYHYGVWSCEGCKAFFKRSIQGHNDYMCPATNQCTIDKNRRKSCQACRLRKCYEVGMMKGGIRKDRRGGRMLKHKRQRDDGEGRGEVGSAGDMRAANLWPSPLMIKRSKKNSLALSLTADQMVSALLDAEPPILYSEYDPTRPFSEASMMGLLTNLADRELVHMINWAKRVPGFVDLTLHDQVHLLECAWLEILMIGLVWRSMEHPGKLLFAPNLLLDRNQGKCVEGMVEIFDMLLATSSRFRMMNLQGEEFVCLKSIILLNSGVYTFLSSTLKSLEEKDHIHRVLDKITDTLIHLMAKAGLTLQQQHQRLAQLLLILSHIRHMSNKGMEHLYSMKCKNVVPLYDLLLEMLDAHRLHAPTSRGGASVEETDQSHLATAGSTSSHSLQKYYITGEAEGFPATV

[3] = molecular target: insulin (human recombinant) (Homo sapiens, UniProt P01308); experiment: Binding to insulin by ultraviolet spectroscopy; details: UV spectroscopy
Mice [4] = tested on: Mice; design: method as in doi:10.32604/biocell.2023.028222; details: cited from earlier work
T1DM rats = tested on: T1DM rats; design: method as in PMID 28230360; details: cited from earlier work
Mice: TRPV1+ vs. TRPV1- = tested on: Mice: TRPV1+ vs. TRPV1-; design: method as in PMID 32400193; details: cited from earlier work
Human [5] = tested on: Human; design: method as in PMID 30668390; details: cited from earlier work
Human, Mice = tested on: Human, Mice; design: method as in PMID 29772784; details: Both ***; cited from earlier work
Human (male) = tested on: Human (male); design: method as in PMID 17615999; details: cited from earlier work
Rats (female) = tested on: Rats (female); design: method as in PMID 29294454; details: cited from earlier work
[6] = tested on: Human (prostate cancer cells); design: method as in PMID 19705615; details: cited from earlier work
[7] = tested on: Human nasopharyngeal carcinoma; design: method as in PMID 28644386; details: cited from earlier work
Mice [8] = tested on: Mice; design: method as in PMID 23958300; details: cited from earlier work
Mice [9] = tested on: Mice; design: method as in PMID 38700794; details: cited from earlier work
Mice [10] = tested on: Mice; design: method as in PMID 23536811; details: cited from earlier work

Sequence of insulin (human recombinant) (P01308 25-54 limits assumed): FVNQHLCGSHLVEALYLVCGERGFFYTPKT
Sequence of insulin (human recombinant) (P01308 90-110 limits assumed): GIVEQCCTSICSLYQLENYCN

Binding (Kd) 4-Androstene-3,17-dione [2]: No binding
Binding (Kd) 5-Pregnan-3β-OL-2O-one [2]: No binding
Binding (Kd) Estradiol [2]: No binding
Binding (Kd) Estriol [2]: No binding
Binding (Kd) Progesterone [2]: No binding
Binding (Kd) Estradiol ([2]; listed as capsaicin): did not bind directly to estradiol
shift of the estradiol (EST-HRP) binding curve (ESR1): approximately a half of a log unit
shift of the estradiol (EST-HRP) binding curve (ESR1; listed as CAP): half-log leftward shift
pKd ([3]; Binding (Kd) Insulin, Table 1): 5.40
binding to insulin (in words) [3]: bound to insulin
pKd ([3]; binding constant to INS): ~5.40
SMILES: COc1cc(CNC(=O)CCCC/C=C/C(C)C)ccc1O [Capsaicin, trans-8-methyl-N-vanillyl-6-nonenamide]
Cancer-Related Effects (Human (NSCLC cells)): >Inhibition of tumor angiogenesis and metastasis
Downregulates or Inhibits (Human (NSCLC cells)): >VEGF expression
Upregulates (Human (NSCLC cells)): >Activates p53-SMAR1 positive feedback loop >Decreases endothelial cell migration and network reformation
Cancer-Related Effects (Human [1]): >Induces apoptosis
Downregulates or Inhibits (Human [1]): >Bax/Bcl2 pathway → decreased expression of Bcl-2 (prosurvival gene)
Upregulates (Human [1]): >Bax/Bcl2 pathways → increased expression of Bax (apoptotic gene)
Capsaicin Upregulates (Human HepG2 cells): >Activation of AMPK pathway
Downregulates or Inhibits (Human HepG2 cells): > Lipogenesis > Inhibition of AKT/mTOR pathway
competition with estradiol for binding to ESR1 (ESR1): did not compete with estradiol for binding to ESR1
effect on estradiol (EST-HRP) binding to the estrogen receptor (ESR1; listed as CAP): enhanced binding of estradiol to its receptor in a concentration-dependent manner; also recorded: increases binding of estradiol to its receptor
Cancer-Related Effects (Mice [4]): >Attenuates testosterone-induced prostate growth
Capsaicin Upregulates (T1DM rats): >Serum INS (CAP 6 mg/kg)
Downregulates or Inhibits (T1DM rats): >Fasting blood glucose levels and serum level of glycosylated protein
Cancer-Related Effects (Mice: TRPV1+ vs. TRPV1-): >Chemoprevention
Downregulates or Inhibits (Mice: TRPV1+ vs. TRPV1-): >Blocked metastatic burden >Mechanism unknown
Cancer-Related Effects (Human [5]): >Inhibits cell proliferation
Downregulates or Inhibits (Human [5]): >Cell cycle arrest in G0/G1 and G2/M phase >Suppresses ROS production
Upregulates (Human [5]): >Increase in reduced glutathione and DPPH
Capsaicin Upregulates (Human, Mice): >INS sensitivity—TRPV-1 activation stimulated GLP-1 release * >Fatty acid oxidation—modulated via TRPV1 activation >INS secretion from pancreatic β-cells ***
Downregulates or Inhibits (Human, Mice): > Inflammatory factors **
Capsaicin Upregulates (Human (male)): >Sympathetic modulation (adrenal catecholamine secretion) and thermogenesis
Cancer-Related Effects (Rats (female)): >Blocks formation of nitrosomethylurea-induced mammary tumors
Downregulates or Inhibits (Rats (female)): >Decreased antioxidant enzymes
Upregulates (Rats (female)): >Increases estradiol, progesterone, CEA and malondialdehyde levels
Cancer-Related Effects [6]: >Induces apoptosis
Upregulates [6]: >Cleavage of procaspase-3 to caspase-3 >Interaction with caspase-1 >TRPV1-mediated Ca+ influx
Cancer-Related Effects [7]: >Regulation of autophagic pathways
Upregulates [7]: >Increases levels of LC3-II and Atg5 >Enhances p62 and Fap-1 degradation
Capsaicin Upregulates (Mice [8]): >Glucose uptake via AMPK activation and increasing p38 MAPK phosphorylation >Stimulation of ROS generation
Cancer-Related Effects (Mice [9]): >Ameliorated changes to the histological structure, prostate weight and prostate index (prostate/body weight ratio)
Downregulates or Inhibits (Mice [9]): >TGF-β1/Smad signaling pathway → expression of E-cadherin, TGFBR2, TGF-β1 and p-Smad2/3 >IGF-1/AKT signaling pathway → expression of IGF-1, IGF-1R, p-AKT and RAGE >Androgen signaling pathway → expression of 5-αreductase type II, AR and PSA
Upregulates (Mice [9]): >TGF-β1/Smad signaling pathway → expression of N-cadherin, vimentin, fibronectin >TRPV-1-mediated apoptosis
Capsaicin Upregulates (Mice [10]): >Ca^2+ ion release into the cell via TRPV-1 activation >Muscle actin–myosin interaction >Force generation >Intramuscular triglyceride consumption
